{"source": "patent US20080075796A1", "about": "“Compositions and Methods for Controlling Insects” (TyraTech, Inc., priority 2003, published 2008)", "key": {"Or83b receptor [1]": {"molecular_target": "T1, Or83b receptor (Drosophila melanogaster, UniProt Q9VNB5)", "T1 construct": "His (from vector pAc5.1/V5-His B) (C); expressed in transfected cells", "T1 sequence (Q9VNB5 1-486)": "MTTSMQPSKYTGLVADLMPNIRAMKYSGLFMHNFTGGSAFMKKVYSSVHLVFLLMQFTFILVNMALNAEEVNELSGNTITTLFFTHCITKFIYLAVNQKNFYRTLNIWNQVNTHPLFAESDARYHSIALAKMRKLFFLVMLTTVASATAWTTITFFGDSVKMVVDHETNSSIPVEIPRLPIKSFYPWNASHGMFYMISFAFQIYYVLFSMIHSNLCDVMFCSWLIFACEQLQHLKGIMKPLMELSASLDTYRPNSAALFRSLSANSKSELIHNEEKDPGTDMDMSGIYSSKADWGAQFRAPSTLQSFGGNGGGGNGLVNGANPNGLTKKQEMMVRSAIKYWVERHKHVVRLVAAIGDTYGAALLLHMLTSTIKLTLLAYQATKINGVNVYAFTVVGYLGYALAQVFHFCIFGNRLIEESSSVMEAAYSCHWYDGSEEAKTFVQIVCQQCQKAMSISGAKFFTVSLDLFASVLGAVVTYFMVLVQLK", "assay": "Saturation binding of ^3H-tyramine to membranes from Schneider cells expressing Or83b receptor", "procedure": "To address whether Or83b receptor and Or43a receptor contain a specific binding site for tyramine, membranes expressing Or83b receptor or Or43a receptor are prepared from cells expressing either receptor, as described above, and used for competitive binding with ^3H-tyramine. The binding assay protocol is exactly as described for cells expressing TyrR, as described above."}, "tyramine receptor (TyrR)": {"molecular_target": "T2, tyramine receptor (TyrR) (Drosophila melanogaster, UniProt P22270)", "T2 sequence (P22270 27-601)": "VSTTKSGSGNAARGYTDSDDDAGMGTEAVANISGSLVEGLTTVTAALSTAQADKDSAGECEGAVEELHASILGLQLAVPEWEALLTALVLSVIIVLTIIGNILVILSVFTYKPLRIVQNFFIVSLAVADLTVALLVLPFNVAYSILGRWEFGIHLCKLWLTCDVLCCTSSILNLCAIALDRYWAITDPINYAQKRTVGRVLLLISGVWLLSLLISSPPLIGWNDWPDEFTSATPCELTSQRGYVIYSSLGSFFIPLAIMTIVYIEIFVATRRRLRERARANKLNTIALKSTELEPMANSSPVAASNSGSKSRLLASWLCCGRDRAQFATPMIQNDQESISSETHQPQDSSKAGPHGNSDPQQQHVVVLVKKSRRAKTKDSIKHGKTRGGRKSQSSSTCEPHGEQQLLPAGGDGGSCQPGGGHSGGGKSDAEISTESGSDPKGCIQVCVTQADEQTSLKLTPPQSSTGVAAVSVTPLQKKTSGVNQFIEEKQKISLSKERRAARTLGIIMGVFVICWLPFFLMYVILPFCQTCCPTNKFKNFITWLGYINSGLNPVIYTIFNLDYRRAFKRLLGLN", "assay": "cAMP levels in Schneider cells expressing tyramine receptor", "format": "cell-based", "parameters": "oligonucleotides that are used to amplify the open reading frame of the Drosophila tyramine receptor (TyrR); expressed in transfected cells", "procedure": "(§1) Cells are grown on dishes and the media changed the day before the treatment. When cells are approximately 95% confluent, media is aspirated and the cells are washed one time with about 5 mL of about 27° C. insect saline (170 mM NaCl, 6.0 mM KCl, 2.0 mM NaHCO3, 17.0 mM glucose, 6.0 mM NaH2PO4, 2.0 mM CaCl2, 4.0 mM MgCl2; pH 7.0). About 20 mL of insect saline is added, and cells are harvested by gentle scraping. An aliquot of the cells is counted by hemocytometer, and the cells are then centrifuged for about 5 minutes at about 1000 RPM. Cells are resuspended to give about 3×10^6 cells per mL. IBMX is added to about 200 μM. Then about 1 mL of cell suspension is aliquoted for treatment. Forskolin (cAMP inducing agent), tyramine or different composition candidates are added, and the cells are incubated at about 27° C. for about 10 minutes.\nTreated cells are centrifuged at about 13000 g for about 10 seconds. The solution is aspirated and about 1 mL of about −20° C. 70% ethanol is added. The cell pellet is disrupted by vortexing and the samples placed at about −20° C. overnight. Following the ethanol extraction, cellular debris is pelleted by centrifugation at about 13000 g for about 5 minutes. The supernatant is transferred to a tube and lyophilized to dryness in a rotary speed-vac. […]\nThe cAMP assay is based on competition binding between endogenous cAMP and ^3H-cAMP to a cAMP binding protein. […] About 200 μL of the reaction mixture is removed and levels of ^3H-cAMP are determined by scintillation counting. Levels of endogenous cAMP from the cells are calculated using a standard curve with cold cAMP ranging from about 0 to 16 pmol per reaction.\nTo examine test chemical-dependent coupling of the tyramine receptor, pAcB-TyrR is stably expressed in Schneider cells. Transfected and untransfected cells are treated with tyramine (about 10 μM), LFO (about 25 μg/ml) and BSO (about 25 μg/ml) in the presence and absence of forskolin (FK) (about 10 μM). cAMP production is measured using the ^3H-cAMP assay kit (Amersham) as described above."}, "Or83b receptor [2]": {"molecular_target": "T1, Or83b receptor", "assay": "cAMP production in Schneider cells expressing Or83b receptor", "format": "cell-based", "procedure": "as §1\nTreated cells are centrifuged at about 13000 g for about 10 seconds. The solution is aspirated and about 1 mL of about −20° C. 70% ethanol is added. The cell pellet is disrupted by vortexing and the samples placed at about −20° C. overnight. Following the ethanol extraction, cellular debris is pelleted by centrifugation at about 13000 g for about 5 minutes. The supernatant is transferred to a tube and lyophilized to dryness in a rotary speed-vac. The resulting extract is resuspended in about 100 μL TE and used for the cAMP assay.\nThe cAMP assay is based on competition binding between endogenous cAMP and ^3H-cAMP to a cAMP binding protein. The ^3H-cAMP Biotrak system (Amersham Biosciences) is used for this assay as per the manufacturer's instructions. Briefly, about 50 μL of the cellular extract is incubated with about 50 μL ^3H-cAMP and about 100 μL cAMP binding protein in an ice bath for about 2-4 hours. Charcoal (about 100 μL) is then added and the solution centrifuged for about 3 minutes at about 4° C. About 200 μL of the reaction mixture is removed and levels of ^3H-cAMP are determined by scintillation counting. Levels of endogenous cAMP from the cells are calculated using a standard curve with cold cAMP ranging from about 0 to 16 pmol per reaction.\nTo ensure that the cAMP cascade in this cell model is functionally active, forskolin, a cAMP inducer, is used as standard agent. Cyclic-AMP levels are measured using the cAMP assay described above in Example 2. […]\nTo determine the effect of various plant essential oils on intracellular cAMP production and the tyramine-dependent changes of cAMP in cells expressing one of the olfactory receptors, cells from each cell model are treated with LFO (about 50 μg/ml) and BSO (about 50 μg/ml) in the presence and absence of tyramine (about 20 μM) and forskolin (about 10 μM) and intracellular cAMP is thereafter quantified using the cAMP assay described above in Example 2."}}, "note": "pKd, pKi: −log10 of the molar value."}
{"smiles": "NCCc1ccc(O)cc1", "note": "[tyramine]", "values": [{"measurement": "pKd", "setting": "Or83b receptor [1]", "result": "~7.01"}, {"measurement": "pKi", "setting": "Or83b receptor [1]", "result": 7.01}, {"measurement": "effect on cAMP in the presence of forskolin", "setting": "tyramine receptor (TyrR); forskolin about 10 μM", "result": "significantly antagonizes forskolin-stimulated cAMP levels"}, {"measurement": "decrease in cAMP level", "setting": "tyramine receptor (TyrR); tyramine about 10 μM, LFO and BSO about 25 μg/ml, without forskolin", "result": "about 10%"}, {"measurement": "increase of cAMP production beyond the effect of forskolin by itself", "setting": "Or83b receptor [2]; forskolin-pretreated cells (about 10 μM)", "result": "10-13%"}, {"measurement": "increase in cAMP production", "setting": "Or83b receptor [2]; tyramine about 20 μM, LFO and BSO about 50 μg/ml", "result": "approximately 34%"}]}
